# Non-standard residues stand in square brackets, D forms with d. Residues, ends and D or L forms follow the SMILES beside them. No end group written: not given here. ξ: configuration not given here. Hyp = O=C(O)[C@@H]1C[C@@H](O)CN1; Ile(3ξ) = CCC(C)[C@H](N)C(=O)O; pGlu = O=C1CC[C@@H](C(=O)O)N1; Sar = CNCC(=O)O
# Columns and labels:
# [1] = tested on: rats with dry eye syndrome (extraorbital lacrimal gland excision, ELGE); test: Amount of tear secretion (Schirmer test, cobalt chloride paper) in rats with ELGE-induced dry eye syndrome; format: in vivo, rat; conditions: for Amount of tear secretion as compared with the ELGE control group: 0.3% solution (DS 3%), administration for 14 days
# Text: (§1) In order to evaluate the eye protection effect on dry eye syndrome by YDE-001 to YDE-028 prepared in Working Example 1, a total of 320 Sprague-Dawley-type male rats (OrientBio, Seungnam, Korea) were adapted for 7 days. Thereafter, dry eye syndrome was induced in 264 test rats through extraorbital lacrimal gland excision (hereinafter, ELGE). 8 test rats without the eye abnormality were subjected to a sham operation as a control group.
# (§2) The rats were systemically anesthetized by inhaling a mixed gas of 2% to 3% of isoflurane (Hana Pharm. Co., Hwasung, Korea), 70% of N2O, and 28.6% of O2 using a rodent anesthesia machine (Surgivet, Waukesha, Wis., USA) and a ventilator (Model 687, Harvard Apparatus, Cambridge, UK). Thereafter, the extraorbital lacrimal gland located in the subdermal area above the masseter muscle and under the optic nerve was excised through a transverse incision in a size of 10 mm on the anterior part of the left ear tragus. The skin was sutured by a general method. […] After 6 days following the ELGE operation, confirmation was performed through the Schirmer test by measuring the amount of tear secretion whether dry eye syndrome had been induced. Meanwhile, each rat of the control group with the sham operation was checked for the presence and location of the extraorbital lacrimal gland through a skin incision, and the skin was then sutured without the excision thereof (FIG. 134).
# (§3) In addition, in order to evaluate the eye protection effect on dry eye syndrome by YDE-029 to YDE-043 prepared in Working Example 1, a total of 200 Sprague-Dawley-type male rats (OrientBio, Seungnam, Korea) were adapted for 7 days. Dry eye syndrome was induced in 165 test rats through the ELGE. 8 test rats without the eye abnormality were subjected to the sham operation as a control group. The ELGE was carried out as described above.
# (§4) For YDE-001 to YDE-028, YY-102 and the 28 YDE-series were each dissolved in physiological saline at a concentration of 3 mg/ml and administered at a dose of 5 μl/eye at 9:30 am and 3:30 pm daily for 14 days after 7 days from the ELGE operation for a total of 28 times. The DS solution was dissolved in physiological saline at a concentration of 30 mg/ml and administered at a dose of 5 μl/eye twice a day for 14 days after 7 days from the ELGE operation for a total of 28 times. For the sham control and the ELGE control groups, the same stimulation as the administration was applied. In order to prevent excessive eye dryness, the same volume of physiological saline was applied in the same manner in place of the test substances.
# as §4, with “Further, For YDE-029” for “For YDE-001”, “Further, For YDE-029 to YDE-043,” for “For YDE-001 to YDE-028,”, “YDE-029 to YDE-043, YY-102 and” for “YDE-001 to YDE-028, YY-102 and”, “and the 15 YDE-series were” for “and the 28 YDE-series were”, “the test substances (FIG. 137).” for “the test substances.”
# After 6 days from the ELGE surgery, the changes in the amount of tear secretion were measured at day 7 and day 14 after the administration of YDE-001 to YDE-043. The amount of tear secretion was measured by the […] travel distance of tears absorbed by cobalt chloride paper in a size of 1×15 mm (Toyo Roshi Kaisha, Japan).
# The cobalt chloride paper was placed in the lateral canthus of a rat for 60 seconds to absorb tears (FIG. 139). The length of the area absorbed from the corner of the cobalt chloride paper was measured with an electronic digital caliper (Mytutoyo, Tokyo, Japan) (FIG. 138).
# [2] = tested on: cornea of rats with dry eye syndrome (ELGE); test: Corneal permeability of fluorescent dye (corneal damage) in rats with ELGE-induced dry eye syndrome; format: in vivo, rat; conditions: 0.3% solution, day 14 after the administration
# Text: as §1, §2, §3, §4
# as §4, with “Further, For YDE-029” for “For YDE-001”, “Further, For YDE-029 to YDE-043,” for “For YDE-001 to YDE-028,”, “YDE-029 to YDE-043, YY-102 and” for “YDE-001 to YDE-028, YY-102 and”, “and the 15 YDE-series were” for “and the 28 YDE-series were”, “the test substances (FIG. 137).” for “the test substances.”
# After YDE-001 to YDE-028 were each administered to the eyes […], the changes in the corneal permeability were checked.
# In order to measure the corneal permeability, Zolethyl 50™ (Virbac Lab., Carros, France), an animal anesthetic, was intraperitoneally injected at a dose of 25 mg/kg. Thereafter, saline containing a 1% (v/v) fluorescent solution (fluorescein sodium salt, Tokyo Kasei Kogyo Co., Tokyo, Japan) was applied to the eyes at a dose of 5 μl/eye. The eyes thus treated were closed and fixed with a tape. After 1 hour, the remaining fluorescent solution was removed using a cotton swab (FIG. 142). […]
# [3] = Stability in aqueous solution, amount of related substances under long-term storage conditions; format: physicochemical; conditions: glass vial, 25° C., 75% RH
# Procedure: In order to confirm the stability of each test substance in an aqueous solution, […] of each sample was dissolved in 1 ml of water to a concentration of 1 mg/ml, which was then charged to a glass vial, plugged with a rubber cap, sealed with an aluminum cap, and stored under long-term storage conditions (25° C., 75% RH). The stability of the test substance was evaluated by measuring the amount of related substances at the time of one week, two weeks, four weeks, eight weeks, and twelve weeks under the long-term storage conditions.
# [4] = study of YDE-001 to YDE-028 (Table 16)
# [5] = study of YDE-029 to YDE-043 (Table 17)
Compound,Amount of tear secretion as compared with the ELGE control group ([1]; study of YDE-001 to YDE-028),"Permeability of fluorescent dye (%) [2, 4] [%]",Amount of related substances (%; after 12 weeks) [3] [%],Amount of tear secretion as compared with the ELGE control group ([1]; study of YDE-029 to YDE-043),"Permeability of fluorescent dye (%) [2, 5] [%]","Tear Volumes, Day 7 ([1]; ELGE rats, 0.3% solution, 5 μl/eye twice daily, day 7 of administration, study of YDE-001 to YDE-028 (Table 14)) [mm^3]","Tear Volumes, Day 14 ([1]; ELGE rats, 0.3% solution, 5 μl/eye twice daily, day 14 of administration, study of YDE-001 to YDE-028 (Table 14)) [mm^3]"
"CC(C)C[C@H](NC(=O)[C@H](CC(C)C)NC(=O)[C@H](CC(=O)O)NC(=O)[C@H](CCC(N)=O)NC(=O)CNC(=O)[C@@H]1C[C@@H](O)CN1)C(=O)N[C@@H](C)C(=O)NCC(=O)N1CCC[C@H]1C(=O)N[C@@H](CCCCN)C(=O)O [YDE-017, HyP-Gly-Gln-Asp-Leu-Leu-Ala-Gly-Pro-Lys] (H-[Hyp]GQDLLAGPK-OH)",did not show any significant changes,39.76 ± 7.42,11.88,–,–,–,–
"CC(C)C[C@H](NC(=O)CNC(=O)[C@@H](NC(=O)[C@H](CCC(N)=O)NC(=O)CNC(=O)[C@@H]1C[C@@H](O)CN1)C(C)C)C(=O)N[C@@H](C)C(=O)NCC(=O)N1CCC[C@H]1C(=O)N[C@@H](CCCCN)C(=O)O [YDE-009, HyP-Gly-Gln-Val-Gly-Leu-Ala-Gly-Pro-Lys] (H-[Hyp]GQVGLAGPK-OH)",did not show any significant changes,41.50 ± 7.86,4.71,–,–,–,–
"CC(C)C[C@H](NC(=O)[C@H](Cc1c[nH]c2ccccc12)NC(=O)[C@H](CC(=O)O)NC(=O)[C@H](CCC(N)=O)NC(=O)CNC(=O)[C@@H]1C[C@@H](O)CN1)C(=O)N[C@@H](C)C(=O)NCC(=O)N1CCC[C@H]1C(=O)N[C@@H](CCCCN)C(=O)O [YDE-021, HyP-Gly-Gln-Asp-Trp-Leu-Ala-Gly-Pro-Lys] (H-[Hyp]GQDWLAGPK-OH)",did not show any significant changes,37.00 ± 10.49,21.33,–,–,–,–
"COC(=O)C[C@H](NC(=O)[C@H](CCC(N)=O)NC(=O)CNC(=O)[C@@H]1C[C@@H](O)CN1)C(=O)NCC(=O)N[C@@H](CC(C)C)C(=O)N[C@@H](C)C(=O)NCC(=O)N1CCC[C@H]1C(=O)N[C@@H](CCCCN)C(=O)O [YDE-027, HyP-Gly-Gln-Asp(Me)-Gly-Leu-Ala-Gly-Pro-Lys] (H-[Hyp]GQD(OMe)GLAGPK-OH)",did not show any significant changes,50.24 ± 11.94,12.74,–,–,–,–
"CC(C)C[C@H](NC(=O)[C@H](Cc1ccc(O)cc1)NC(=O)[C@H](CC(=O)O)NC(=O)[C@H](CCC(N)=O)NC(=O)CNC(=O)[C@@H]1C[C@@H](O)CN1)C(=O)N[C@@H](C)C(=O)NCC(=O)N1CCC[C@H]1C(=O)N[C@@H](CCCCN)C(=O)O [YDE-020, HyP-Gly-Gln-Asp-Tyr-Leu-Ala-Gly-Pro-Lys] (H-[Hyp]GQDYLAGPK-OH)",did not show any significant changes,47.84 ± 13.47,21.54,–,–,–,–
"CC(C)C[C@H](NC(=O)[C@H](Cc1ccccc1)NC(=O)[C@H](CC(=O)O)NC(=O)[C@H](CCC(N)=O)NC(=O)CNC(=O)[C@@H]1C[C@@H](O)CN1)C(=O)N[C@@H](C)C(=O)NCC(=O)N1CCC[C@H]1C(=O)N[C@@H](CCCCN)C(=O)O [YDE-019, HyP-Gly-Gln-Asp-Phe-Leu-Ala-Gly-Pro-Lys] (H-[Hyp]GQDFLAGPK-OH)",did not show any significant changes,40.39 ± 12.57,13.43,–,–,–,–
"CNC(=O)C[C@H](NC(=O)[C@H](CCC(N)=O)NC(=O)CNC(=O)[C@@H]1C[C@@H](O)CN1)C(=O)NCC(=O)N[C@@H](CC(C)C)C(=O)N[C@@H](C)C(=O)NCC(=O)N1CCC[C@H]1C(=O)N[C@@H](CCCCN)C(=O)O [YDE-028, HyP-Gly-Gln-Asn(Me)-Gly-Leu-Ala-Gly-Pro-Lys] (H-[Hyp]GQD(NHMe)GLAGPK-OH)",did not show any significant changes,41.17 ± 10.25,1.15,–,–,–,–
"CC(C)C[C@H](NC(=O)[C@H](Cc1c[nH]cn1)NC(=O)[C@H](CC(=O)O)NC(=O)[C@H](CCC(N)=O)NC(=O)CNC(=O)[C@@H]1C[C@@H](O)CN1)C(=O)N[C@@H](C)C(=O)NCC(=O)N1CCC[C@H]1C(=O)N[C@@H](CCCCN)C(=O)O [YDE-022, HyP-Gly-Gln-Asp-His-Leu-Ala-Gly-Pro-Lys] (H-[Hyp]GQDHLAGPK-OH)",did not show any significant changes,47.82 ± 10.01,19.23,–,–,–,–
"CCC(C)[C@H](NC(=O)[C@H](CCC(N)=O)NC(=O)CNC(=O)[C@@H]1C[C@@H](O)CN1)C(=O)NCC(=O)N[C@@H](CC(C)C)C(=O)N[C@@H](C)C(=O)NCC(=O)N1CCC[C@H]1C(=O)N[C@@H](CCCCN)C(=O)O (stereo partly drawn) [YDE-010, HyP-Gly-Gln-Ile-Gly-Leu-Ala-Gly-Pro-Lys] (H-[Hyp]GQ[Ile(3ξ)]GLAGPK-OH)",did not show any significant changes,49.29 ± 12.06,4.39,–,–,–,–
"CC(C)C[C@H](NC(=O)CNC(=O)[C@H](CC(C)C)NC(=O)[C@H](CCC(N)=O)NC(=O)CNC(=O)[C@@H]1CCC(=O)N1)C(=O)N[C@@H](C)C(=O)NCC(=O)N1CCC[C@H]1C(=O)N[C@@H](CCCCN)C(=O)O [YDE-036, (5-oxo)Pro-Gly-Gln-Leu-Gly-Leu-Ala-Gly-Pro-Lys] ([pGlu]GQLGLAGPK-OH)",–,–,–,did not show any significant changes,57.87 ± 22.91,–,–
"CC(C)C[C@H](NC(=O)[C@@H]1CCCN1C(=O)CNC(=O)[C@H](C)NC(=O)[C@H](CC(C)C)NC(=O)CNC(=O)[C@H](CC(C)C)NC(=O)[C@H](CCC(N)=O)NC(=O)CNC(=O)[C@@H]1C[C@@H](O)CN1)C(=O)O [YDE-030, HyP-Gly-Gln-Leu-Gly-Leu-Ala-Gly-Pro-Leu] (H-[Hyp]GQLGLAGPL-OH)",–,–,–,did not show any significant changes,30.60 ± 13.61,–,–
"YDE-025: peptide of SEQ ID NO: 31, the compound represented by Formula 10 ([Hyp]GQD[Sar]LAGPK; ends and bridges not checked)",did not show any significant changes,47.10 ± 11.45,5.17,–,–,3.21 ± 0.72,4.72 ± 2.19
